Assay: molar heat capacity at constant pressure
Details: 101.33 kPa, Crystal, relaxation calorimetry

O=C(O)c1ccccc1 [benzoic acid]
Details | molar heat capacity at constant pressure [J/K/mol]
1.855 K | 0.01205
1.92 K | 0.01371
1.999 K | 0.01544
2.082 K | 0.0168
2.168 K | 0.01932
2.26 K | 0.02218
2.357 K | 0.02464
2.464 K | 0.0282
2.568 K | 0.03421
2.679 K | 0.03716
2.796 K | 0.04141
2.918 K | 0.04667
3.044 K | 0.04829
3.179 K | 0.0605
3.32 K | 0.07095
3.465 K | 0.07898
3.617 K | 0.08814
3.776 K | 0.103
3.942 K | 0.1157
4.118 K | 0.1296
4.303 K | 0.1534
4.491 K | 0.172
4.686 K | 0.1966
4.893 K | 0.2248
5.109 K | 0.2491
5.336 K | 0.3026
5.572 K | 0.3324
5.823 K | 0.382
6.077 K | 0.452
6.345 K | 0.5096
6.625 K | 0.5803
6.92 K | 0.6878
7.225 K | 0.7916
7.545 K | 0.8991
7.878 K | 1.031
8.227 K | 1.197
8.596 K | 1.338
8.976 K | 1.541
9.373 K | 1.763
9.789 K | 1.997
10.24 K | 2.278
10.71 K | 2.579
11.18 K | 2.902
11.68 K | 3.262
12.2 K | 3.647
12.74 K | 4.074
13.3 K | 4.535
13.89 K | 5.046
14.5 K | 5.598
15.14 K | 6.188
15.64 K | 6.658
17.1 K | 8.085
18.69 K | 9.716
20.41 K | 11.56
22.32 K | 13.61
24.4 K | 15.91
26.66 K | 18.4
29.13 K | 20.97
31.84 K | 23.77
34.8 K | 26.64
38.03 K | 29.6
41.56 K | 32.79
45.42 K | 35.88
49.63 K | 39.11
54.24 K | 42.18
59.28 K | 45.06
64.78 K | 47.92
70.79 K | 50.65
77.36 K | 53.75
84.51 K | 57.18
92.38 K | 61.03
100.95 K | 64.26
110.98 K | 67.64
121.09 K | 71.22
131.21 K | 75.19
141.28 K | 78.86
151.34 K | 82.29
161.49 K | 85.76
171.59 K | 90.18
181.67 K | 95.02
191.74 K | 98.7
201.82 K | 102.27
211.92 K | 106.37
222 K | 112.07
232.09 K | 117.31
242.17 K | 119.6
252.25 K | 124.22
262.35 K | 128.72
272.46 K | 133
282.54 K | 137.8
292.59 K | 141.72
302.66 K | 146.37

[Al] [aluminum]
Details | molar heat capacity at constant pressure [J/K/mol]
1.863 K | 0.002602
1.936 K | 0.002749
2.01 K | 0.002882
2.089 K | 0.002997
2.173 K | 0.003177
2.264 K | 0.003323
2.36 K | 0.003531
2.459 K | 0.003773
2.562 K | 0.003901
2.677 K | 0.00413
2.795 K | 0.004373
2.915 K | 0.004596
3.042 K | 0.004765
3.177 K | 0.005056
3.318 K | 0.005413
3.464 K | 0.005679
3.615 K | 0.005941
3.776 K | 0.006361
3.943 K | 0.00681
4.119 K | 0.007189
4.301 K | 0.007838
4.492 K | 0.008275
4.687 K | 0.008914
4.896 K | 0.009549
5.111 K | 0.01026
5.34 K | 0.01095
5.574 K | 0.01158
5.822 K | 0.01268
6.08 K | 0.01359
6.349 K | 0.01458
6.636 K | 0.01573
6.925 K | 0.01714
7.23 K | 0.01866
7.547 K | 0.02044
7.883 K | 0.02258
8.234 K | 0.02467
8.595 K | 0.02641
8.981 K | 0.02942
9.378 K | 0.03231
9.795 K | 0.03497
10.24 K | 0.03897
10.71 K | 0.04317
11.19 K | 0.04767
11.69 K | 0.05284
12.21 K | 0.05868
12.75 K | 0.06538
13.31 K | 0.07304
13.9 K | 0.08149
14.52 K | 0.09112
15.16 K | 0.1021
15.66 K | 0.1115
17.12 K | 0.1425
18.7 K | 0.1842
20.44 K | 0.24
22.34 K | 0.317
24.42 K | 0.423
26.67 K | 0.5669
29.14 K | 0.7607
31.85 K | 1.02
34.81 K | 1.356
38.05 K | 1.784
41.58 K | 2.319
45.44 K | 2.967
49.66 K | 3.728
54.27 K | 4.615
59.31 K | 5.613
64.81 K | 6.718
70.81 K | 7.909
77.38 K | 9.17
84.53 K | 10.51
92.37 K | 11.83
100.93 K | 13.12
111.01 K | 14.49
121.1 K | 15.74
131.22 K | 16.79
141.3 K | 17.72
151.36 K | 18.54
161.49 K | 19.25
171.61 K | 19.88
181.69 K | 20.47
191.79 K | 21.01
201.89 K | 21.48
211.98 K | 21.89
222.08 K | 22.24
232.18 K | 22.58
242.28 K | 22.91
252.36 K | 23.16
262.46 K | 23.41
272.56 K | 23.64
282.64 K | 23.88
292.73 K | 24.08
302.81 K | 24.25
